Data on 5 compounds can be found in patent US6838019B2, “Phosphorescent material and electroluminescent device using thereof” (Ritek Corporation, priority 2001, dated 2005).

A short description of the data set: Solubility test in organic solvents. Format: physicochemical. The settings on record: 1 mg, room temperature (20 degrees Celsius); for Solubility in methylcyclohexane: methyl cyclohexane. More on the design: key: X: not dissolved; ◯: partially dissolved; ⊚: completely dissolved. As for the experimental part:
1 mg of Tb(TMHD)3—DMSO, Tb(TMHD)3—MPSO, Tb(TMHD)3—DPSO, Tb(TMHD)3, Tb(TMHD)3—OPNP are each dissolved under room temperature (20 degrees Celsius) in the following organic solvent: dichlormethane, acetonitrile, toluene, ethyl acetate, hexane, methyl cyclohexane methanol, methy ethyl ketone ether.

For the compound `CC(C)(C)C(=O)[CH-]C(=O)C(C)(C)C.CC(C)(C)C(=O)[CH-]C(=O)C(C)(C)C.CC(C)(C)C(=O)[CH-]C(=O)C(C)(C)C.[Tb+3]` [Tb(TMHD)3, tris(2,2,6,6-tetramethyl-3,5-heptanedionato) Terbium(III), reference compound], the Solubility in acetonitrile entry is given as “X”, the Solubility in dichloromethane entry is “◯”, the Solubility in ether result is “◯” and the “Solubility in ethyl acetate” value is on record as “X”. Further, the Solubility in hexane result was “X”, the Solubility in methanol entry is reported as “X”, the Solubility in methylcyclohexane entry is “X” and the “Solubility in methyl ethyl ketone” value was “X”. Further, the Solubility in toluene result is “◯”.
Take `CC(C)(C)C(=O)C=C([O-])C(C)(C)C.CC(C)(C)C(=O)C=C([O-])C(C)(C)C.CC(C)(C)C(=O)C=C([O-])C(C)(C)C.CS(C)=O.[Tb+3]` [Tb(TMHD)3-DMSO, tri(2,2,6,6-tetramethyl-3,5-heptanedionate) Tb(III) dimethyl sulfoxide]: the Solubility in acetonitrile entry is listed as “◯”, the Solubility in dichloromethane entry is “⊚”, the Solubility in ether result is listed as “⊚” and the “Solubility in ethyl acetate” value is listed as “⊚”. Further, the Solubility in hexane result is “⊚”, the Solubility in methanol entry was “⊚”, the Solubility in methylcyclohexane entry is “⊚” and the “Solubility in methyl ethyl ketone” value is “⊚”. The Solubility in toluene entry was “⊚”.
In the case of `CC(C)(C)C(=O)C=C([O-])C(C)(C)C.CC(C)(C)C(=O)C=C([O-])C(C)(C)C.CC(C)(C)C(=O)C=C([O-])C(C)(C)C.O=S(c1ccccc1)c1ccccc1.[Tb+3]` [Tb(TMHD)3-DPSO, tri(2,2,6,6-tetramethyl-3,5-heptanedionate) Tb(III) diphenyl sulfoxide], the Solubility in acetonitrile entry is reported as “◯”, the Solubility in dichloromethane result is “⊚”, the Solubility in ether result is “⊚” and the “Solubility in ethyl acetate” value is “⊚”. Besides, the Solubility in hexane entry is “⊚”, the Solubility in methanol result is on record as “⊚”, the Solubility in methylcyclohexane entry was “⊚” and the “Solubility in methyl ethyl ketone” value is “⊚”. For the same compound, the Solubility in toluene entry was “⊚”.
`CC(C)(C)C(=O)C=C([O-])C(C)(C)C.CC(C)(C)C(=O)C=C([O-])C(C)(C)C.CC(C)(C)C(=O)C=C([O-])C(C)(C)C.CS(=O)c1ccccc1.[Tb+3]` [Tb(TMHD)3-MPSO, tri(2,2,6,6-tetramethyl-3,5-heptanedionate) Tb(III) methyl phenyl sulfoxide]: the Solubility in acetonitrile result was “◯”, the Solubility in dichloromethane result is “⊚”, the Solubility in ether result is listed as “⊚” and the “Solubility in ethyl acetate” value is given as “⊚”. In addition, the Solubility in hexane entry is given as “⊚”, the Solubility in methanol result is “⊚”, the Solubility in methylcyclohexane result is “⊚” and the “Solubility in methyl ethyl ketone” value is on record as “⊚”. The Solubility in toluene entry is “⊚”.
Take “Tris(2,2,6,6-tetramethyl-3,5-heptanedionato) Terbium (III) diphenyl phosphonimide tris-phenyl phosphorane [Tb(TMHD)3-OPNP, reference compound]”: the Solubility in acetonitrile entry is “◯”, the Solubility in dichloromethane result was “⊚”, the Solubility in ether result is given as “⊚” and the “Solubility in ethyl acetate” value was “⊚”. In addition, the Solubility in hexane result is listed as “◯”, the Solubility in methanol entry is “◯”, the Solubility in methylcyclohexane result is reported as “◯” and the “Solubility in methyl ethyl ketone” value is given as “⊚”. Besides, the Solubility in toluene entry was “⊚”.
